Patent US12343347B2 (Biohaven Pharmaceutical Holding Company Ltd., priority 2012, dated 2025)

Legend:
Format in all cases: in vitro ADME
[1] = Stability in Simulated Gastric Fluid (SGF); conditions: SGF:acetonitrile 9:1, 0.01 mg/mL, 37° C.
Protocol: (§1) Stability in Simulated Gastric Fluid (SGF) and Simulated Intestinal Fluid (SIF). Procedure from Baudy et. al. (J. Med. Chem. 2009, 52, 771-778) used. The physiological stability of pro-drugs was determined by examining the stability of the compound in SGF, and SIF at 37° C. The compounds were prepared in a 9:1 mixture of the appropriate test component (SGF, SIF) and acetonitrile to a final concentration of 0.01 mg/mL. The samples were thoroughly mixed and maintained at 37° C. Each sample was injected consecutively onto an Agilent 1100 system (Luna C18, 3 μm, 50 mm×3 mm; 1 mL/min; mobile phase of 0.1% trifluoroacetic acid in water/0.1% trifluoroacetic acid in acetonitrile) after a 3 h period. The percent remaining of pro-drug was calculated by comparing the area of pro-drug compound versus riluzole generated. The identities of the parent compounds and conversion products were confirmed by LC/MS.

[2] = Metabolic stability in pooled human liver microsomes; conditions: human liver microsomes 0.5 mg/mL, 1 uM, NADPH, 37° C.
Protocol: (§2) Metabolic Stability: In vitro metabolic stability was determined in pooled mouse or human liver microsomes (BD Gentest) at a protein concentration of 0.5 mg/mL in reaction buffer (100 mM KH2PO4, pH 7.4 and 12 mM MgCl2). Each drug candidate was added to a final concentration of 1 uM. This mixture was pre-warmed to 37° C. for 10 minutes prior to starting the reaction with the addition of β-Nicotinamide adenine dinucleotide 2′-phosphate reduced (NADPH) to a final concentration of 1 mM. A parallel incubation lacking NADPH served as the control. After incubation for 30 min at 37° C., the reactions were quenched by the addition of acetonitrile containing 0.1% formic acid and internal standard, vortex mixed for 2 minutes and centrifuged at 4000 rpm for 10 minutes to pellet the precipitated protein. The resulting supernatant containing the drug candidate and its potential metabolites was diluted 5-fold with water containing 0.1% formic acid and submitted to LC-MS/MS analysis. […]
(§3) LC-MS/MS Analysis: An aliquot from each incubation was analyzed by LC-MS/MS with SRM detection in the positive ionization mode using an ABSciex API 5500 QTrap Mass Spectrometer interfaced via the ABSciex Turbo V IonSpray source (ESI) to an Eksigent ExpressHT LC system. […] A fast gradient, from 15 to 85% organic in 2.5 minutes, with run time of 5.0 minutes, and flow rate of 50 uL/min was utilized. Peak areas were integrated using MultiQuant v2.0 software from ABSciex.

[3] = Plasma stability in fresh mouse plasma; conditions: 1 uM, 37° C.
Protocol: (§4) Plasma Stability: Assessment of plasma stability was carried out by individual incubations of drug candidates in fresh mouse or human control plasma at a concentration of 1 uM for 1 hour at 37° C. After which, the samples were de-proteinized by addition of 2 volumes of acetonitrile containing 0.1% formic acid and internal standard, vortex mixed for 2 minutes and centrifuged at 4000 rpm for 10 minutes to pellet precipitated protein. The resulting supernatant containing the drug candidates was diluted 5-fold with water containing 0.1% formic acid and submitted to LC-MS/MS analysis. All determinations were done in triplicate. […]
as §3

[4] = Stability in Simulated Intestinal Fluid (SIF); conditions: SIF:acetonitrile 9:1, 0.01 mg/mL, 37° C.
Protocol: as §1

[5] = Plasma stability in fresh human plasma; conditions: 1 uM, 37° C.
Protocol: as §4, §3

[6] = Metabolic stability in pooled mouse liver microsomes; conditions: mouse liver microsomes 0.5 mg/mL, 1 uM, NADPH, 37° C.
Protocol: as §2, §3

| SGF (3 hours), percent of pro-drug metabolized to riluzole [1] | Metabolic Stability human (30 minutes), percent of pro-drug metabolized to riluzole [2] | Plasma Stability mouse (1 hour), percent of pro-drug metabolized to riluzole [3] | SIF (3 hours), percent of pro-drug metabolized to riluzole [4] | Plasma Stability Human (1 hour), percent of pro-drug metabolized to riluzole [5] | Metabolic Stability mouse (30 minutes), percent of pro-drug metabolized to riluzole [6] | Structure (SMILES) |
| --- | --- | --- | --- | --- | --- | --- |
| 0% | 34% | 0% | 0% | 0% | 15% | CCCOC(=O)Nc1nc2ccc(OC(F)(F)F)cc2s1 [Cpd 14, (6-Trifluoromethoxy-benzothiazol-2-yl)-carbamic acid propyl ester] |
| 3% | 18% | 47% | 0% | 6% | 12% | N[C@H](Cc1ccccc1)C(=O)Nc1nc2ccc(OC(F)(F)F)cc2s1 [Cpd 4, (R)-2-Amino-3-phenyl-N-(6-trifluoromethoxy-benzothiazol-2-yl)-propionamide] |
| 0% | – | – | 50% | – | – | NCC1(CC(=O)Nc2nc3ccc(OC(F)(F)F)cc3s2)CCCCC1 [Cpd 29, 2-(1-Aminomethyl-cyclohexyl)-N-(6-trifluoromethoxy-benzothiazol-2-yl)-acetamide] |
| 0% | 13% | 9% | 0% | 0% | 53% | CCCCOC(=O)Nc1nc2ccc(OC(F)(F)F)cc2s1 [Cpd 15, (6-Trifluoromethoxy-benzothiazol-2-yl)-carbamic acid butyl ester] |
| 0% | 22% | 0% | 0% | 13% | 59% | O=C(Cc1ccccc1[N+](=O)[O-])Nc1nc2ccc(OC(F)(F)F)cc2s1 [Cpd 27, 2-(2-Nitro-phenyl)-N-(6-trifluoromethoxy-benzothiazol-2-yl)-acetamide] |
| – | 0% | 0% | – | 7% | 2% | N[C@@H](Cc1ccccc1)C(=O)Nc1nc2ccc(OC(F)(F)F)cc2s1 [Cpd 9, (S)-2-Amino-3-phenyl-N-(6-trifluoromethoxy-benzothiazol-2-yl)-propionamide] |
| – | 0% | 25% | – | 3% | 24% | N[C@H](COCc1ccccc1)C(=O)Nc1nc2ccc(OC(F)(F)F)cc2s1 [Cpd 5, (R)-2-Amino-3-benzyloxy-N-(6-trifluoromethoxy-benzothiazol-2-yl)-propionamide] |
| 0% | 0% | 28% | 50% | 10% | 1% | C[C@H](N)C(=O)Nc1nc2ccc(OC(F)(F)F)cc2s1 [Cpd 7, (S)-2-Amino-N-(6-trifluoromethoxy-benzothiazol-2-yl)-propionamide] |
| 0% | 0% | 0% | 0% | 0% | 78% | CNCCCCC(=O)Nc1nc2ccc(OC(F)(F)F)cc2s1 [Cpd 25, 5-Methylamino-pentanoic acid (6-trifluoromethoxy-benzothiazol-2-yl)-amide] |
| 0% | 21% | 0% | 0% | 0% | 0% | CC(C)(C)OC(=O)CCC(=O)Nc1nc2ccc(OC(F)(F)F)cc2s1 [Cpd 22, N-(6-Trifluoromethoxy-benzothiazol-2-yl)-succinamic acid tert-butyl ester] |
| 0% | 0% | 0% | 0% | 16% | 70% | O=C(O)CCC(=O)Nc1nc2ccc(OC(F)(F)F)cc2s1 [Cpd 20, N-(6-Trifluoromethoxy-benzothiazol-2-yl)-succinamic acid] |
| 0% | 10% | 3% | 0% | 0% | 13% | CN(C)CCOC(=O)Nc1nc2ccc(OC(F)(F)F)cc2s1 [Cpd 18, (6-Trifluoromethoxy-benzothiazol-2-yl)-carbamic acid 2-dimethylamino-ethyl ester] |
| 0% | 7% | 0% | 0% | 0% | 8% | CCOC(=O)Nc1nc2ccc(OC(F)(F)F)cc2s1 [Cpd 13, (6-Trifluoromethoxy-benzothiazol-2-yl)-carbamic acid ethyl ester] |
| 0% | 4% | 36% | 50% | 15% | 10% | C[C@@H](N)C(=O)Nc1nc2ccc(OC(F)(F)F)cc2s1 [Cpd 2, (R)-2-Amino-N-(6-trifluoromethoxy-benzothiazol-2-yl)-propionamide] |
| 0% | – | – | 60% | – | – | O=C(CCC(=O)Nc1nc2ccc(OC(F)(F)F)cc2s1)NCCN1CCOCC1 [Cpd 24, N-(2-Morpholin-4-yl-ethyl)-N′-(6-trifluoromethoxy-benzothiazol-2-yl)-succinamide] |
| 0% | – | – | – | – | – | CCCCCCOC(=O)Nc1nc2ccc(OC(F)(F)F)cc2s1 [Cpd 17, (6-Trifluoromethoxy-benzothiazol-2-yl)-carbamic acid hexyl ester] |
| – | 7% | 11% | – | 3% | 4% | NCC(=O)Nc1nc2ccc(OC(F)(F)F)cc2s1 [Cpd 1, 2-Amino-N-(6-trifluoromethoxy-benzothiazol-2-yl)-acetamide] |
